Experiments:
[1] = tested on: tumor cells with N-Ras mutation and K-Ras mutation, B-Raf wild type genetic background; experiment: Activity against tumor cells with MAPK pathway activation by upstream signaling; assay type: cell-based
[2] = tested on: melanoma tumor cells which developed resistance to vemurafenib; experiment: Activity against vemurafenib-resistant melanoma tumor cells; assay type: cell-based
[3] = tested on: Calu-6 lung cancer model (KRAS Q61K); experiment: In vivo tumor efficacy, KRAS mutated Calu-6 human lung carcinoma model; design: species or system Mouse (Mus musculus) Athymic Balb/c Nude; details: for TGI: Day 21
[4] = tested on: N-Ras mutated SK-MEL-2 human melanoma xenograft; experiment: In vivo tumor efficacy, N-Ras mutated SK-MEL-2 human melanoma xenograft model; design: species or system Mouse (Mus musculus) Athymic NCr-nu/nu; details: Day 20
[5] = Body weight loss in the Calu-6 xenograft study; assay type: in vivo, Mouse (Mus musculus) Athymic Balb/c Nude
Description: Each animal was inoculated with 2×10^6 Calu-6 tumor cells (in 0.1 mL, 1:1 with Matrigel) at the right flank for tumor model development. Body weight and the tumor growth were monitored twice weekly. Tumor size was measured to the nearest 0.1 mm using vernier caliper and applying the formula V=W^2×L/2, where V=volume, W=width, and L=length for the tumor xenograft. Xenografts were allowed to grow until they reached an average size of approximately 220 mm^3 after 14 days.
Tumor size and body weight were measured twice weekly beginning on the day of animal grouping. The study was terminated on Day 35 post treatment initiation.

[6] = Body weight loss in the SK-MEL-2 xenograft study; assay type: in vivo, Mouse (Mus musculus) Athymic NCr-nu/nu
Description: Tumor size and body weight were measured BIW beginning on the first day of treatment. Animals were terminated when their tumor reached approximately 2000 mm^3, and the study was terminated on Day 62 post treatment initiation.

[7] = Compound A 12.5 mg/kg PO QD Days 1-21

Row | Compound | activity against tumor cells [1] | activity against tumor cells [2] | ΔAUC [3, 7] | TGI [3, 7] [%] | ΔAUC ([3]; Compound A 50 mg/kg PO BIW) | TGI ([3]; Compound A 50 mg/kg PO BIW) [%] | TGI ([4]; Compound A 50 mg/kg PO BIW) [%] | Mean Maximum % BWL ([5]; Compound A 12.5 mg/kg PO QD, Day 0 to Day 21) [%] | Mean Maximum % BWL ([5]; Compound A 50 mg/kg PO BIW, Day 7) | Mean Maximum BWL ([6]; Compound A 12.5 mg/kg PO QD Days 0-20, Days 3 and 10) | Mean Maximum BWL ([6]; Compound A 50 mg/kg PO BIW, Day 17) | ΔAUC ([3]; docetaxel 5 mg/kg IV QW) | TGI ([3]; docetaxel 5 mg/kg IV QW) [%] | ΔAUC ([3]; docetaxel 7.5 mg/kg IV QW) | TGI ([3]; docetaxel 7.5 mg/kg IV QW) [%] | TGI ([4]; docetaxel 7.5 mg/kg IV QW) [%] | Mean Maximum % BWL ([5]; docetaxel 5 mg/kg IV QW, Day 0 to Day 21) [%] | Mean Maximum % BWL ([5]; docetaxel 7.5 mg/kg IV QW, Day 21) | Mean Maximum BWL ([6]; docetaxel 7.5 mg/kg IV QW, Day 14)
1 | C[C@@H](NC(=O)c1ncnc(N)c1Cl)c1ncc(C(=O)Nc2cc(C(F)(F)F)c(Cl)cn2)s1 [Compound A, (R)-2-(1-(6-amino-5-chloropyrimidine-4-carboxamide)ethyl)-N-(5-chloro-4-(trifluoromethyl)pyridin-2-yl)thiazole-5-carboxamide] | active | active | 55.4 | 58.9 | 62.7 | 59.4 | 62.9 | 0 | −0.1% (Day 7) | 1% (Days 3 | 4% (Day 17) |  |  |  |  |  |  |  | 
2 | CC(=O)O[C@@]12CO[C@@H]1C[C@H](O)[C@@]1(C)C(=O)[C@H](O)C3=C(C)[C@@H](OC(=O)[C@H](O)[C@@H](NC(=O)OC(C)(C)C)c4ccccc4)C[C@@](O)([C@@H](OC(=O)c4ccccc4)[C@H]21)C3(C)C [docetaxel, reference compound] |  |  |  |  |  |  |  |  |  |  |  | 9.0 | 5.2 | 18.4 | 17.7 | 74.9 | 0 | 2.5% (Day 21) | 15% (Day 14)
